Experimental data as given in patent publication US20100178299A1, “METHODS AND COMPOSITIONS FOR IMPROVING IMMUNE RESPONSES” (Northeastern University, priority 2007, published 2010).
“Also recorded” adds a separate entry of the source.

How the values were obtained:
[1] = system: MCA 205 fibrosarcoma lung metastases; experiment: Adoptive immunotherapy of MCA 205 fibrosarcoma lung metastases; assay type: in vivo, mice; conditions: KW6002 20 mg/kg daily i.p. with adoptive transfer of 12.5×10^6 anti-tumor T cells; day 21
Method: Here, we observed the effect of adoptively transferred anti-tumor T cells on the weakly immunogenic MCA 205 fibrosarcoma lung metastases if treatment included A2AR antagonist KW6002. It is shown that treatment with this long-lived A2AR antagonist may strongly enhance the efficacy of adoptive immunotherapy (FIG. 7).
CTLs were prepared from tumor draining lymph nodes isolated from lymph nodes 12 days after s.c. inoculation with 1.5×105 MCA205 fibrosarcoma. After 2 days anti-CD3 activation and additional 3 days IL-2 expansion, these T cells were injected into mice with 10 days established pulmonary metastases (3×10^5 MCA205 cells). After the adoptive transfer, the mice received daily i.p. injection of 20 mg/kg of KW6002. The pulmonary metastases were examined by day 21 after tumor inoculation. (Please note that tumors appear as white nodules upon the ink injected lungs.)

[2] = system: B16 melanoma; experiment: B16 melanoma growth and survival in mice given GM-CSF-transfected B16 tumor vaccine; assay type: in vivo, C57BL/6 mice; conditions: for survival of mice: log-rank
Description: Tumor melanoma cells are transfected with GM-CSF then irradiated or treated with anti-proliferative drug, mitomycin C, in order to prevent the proliferation of these tumor vaccine cells in a patient to be injected with this vaccine. […] Hodi F S, Dranoff G. Combinatorial cancer immunotherapy. Adv Immunol. 2006; 90:341-68
B16 melanoma (1×10^6 cells, s.c.) were inoculated to syngeneic C57BL/6 mice. All the mice received tumor vaccination, GM-CSF transfectant of B16 cells (1×10^6 cells, s.c.), for 3 times in every week starting from day 2. On the same day, treatment with KW6002 (2 mg/kg, daily s.c. injection) and/or 60% oxygen was started until the end of the experiment. B16 tumor growth was retarded by treatment with 60% oxygen and combined treatment with KW6002 (left). Perpendicular tumor diameters were measured and tumor volumes were calculated according to the formula a2×b×0.52, where a is the smaller and b is the larger tumor diameter. […] The mice were euthanized when tumor reached 2.0 cm in diameter or became ulcerated. […] The difference was statistically significant with control vs 60% O2 (p=0.033) and control vs 60% O2+KW (p=0.001). The statistics was calculated by log-rank test.

[3] = target: T1, A2AR (Homo sapiens, UniProt P29274); experiment: Control assay of ex vivo serum from caffeine-treated mice on adenosine→A2AR-induced cAMP accumulation in cells; assay type: cell-based; conditions: ex vivo serum from mice given caffeine 0.1% w/v in drinking water
T1 construct: host or cells: cells, not specified

[4] = system: RMA T lymphoma; experiment: RMA T lymphoma growth, rejection and survival in mice treated with caffeine and/or 60% oxygen; assay type: in vivo, C57BL/6 mice
[5] = system: TNP-specific IgM; experiment: TNP-KLH/CFA immunization with IFA booster, indirect ELISA of TNP-specific IgM (Example 2); assay type: in vivo, C57B1/6 mice
[6] = caffeine alone in drinking water (0.1% w/v), FIG. 2

T1 sequence (P29274 whole entry): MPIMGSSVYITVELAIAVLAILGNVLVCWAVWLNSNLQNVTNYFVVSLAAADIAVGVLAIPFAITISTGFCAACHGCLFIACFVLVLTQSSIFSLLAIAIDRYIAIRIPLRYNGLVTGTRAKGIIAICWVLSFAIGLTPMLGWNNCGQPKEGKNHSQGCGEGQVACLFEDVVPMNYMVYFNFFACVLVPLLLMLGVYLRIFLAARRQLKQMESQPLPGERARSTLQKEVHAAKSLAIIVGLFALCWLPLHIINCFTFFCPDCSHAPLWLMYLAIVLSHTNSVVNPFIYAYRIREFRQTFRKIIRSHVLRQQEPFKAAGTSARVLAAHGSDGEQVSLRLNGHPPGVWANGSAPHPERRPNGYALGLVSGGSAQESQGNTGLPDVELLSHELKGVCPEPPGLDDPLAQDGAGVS

**Q.** `CCn1c(=O)c2c(nc(/C=C/c3ccc(OC)c(OC)c3)n2C)n(CC)c1=O` [KW6002, (E)-8-(3,4-dimethoxystyryl)-1,3-diethyl-7-methylxanthine] was tested. Which “lung tumor nodules (pulmonary metastases)” value [1] did it give?
**A.** most of the tumor nodules were eliminated

**Q.** And the B16 tumor growth ([2]; KW6002 2 mg/kg daily s.c. combined with 60% oxygen, n=8, 2 mg/kg)?
**A.** can significantly retard tumor growth; also recorded: retarded

**Q.** What about the survival of mice ([2]; KW6002 2 mg/kg daily s.c. combined with 60% oxygen, p=0.001 vs control) of the same compound?
**A.** prolonged survival of mice

**Q.** How did the “in vivo levels of caffeine in serum versus adenosine→A2AR-induced cAMP accumulation” value [3] turn out when `Cn1c(=O)c2c(ncn2C)n(C)c1=O` [caffeine, 1,3,7-trimethylxanthine] was run?
**A.** sufficiently high to prevent (antagonize) adenosine→A2AR-induced cAMP accumulation in cells

**Q.** And the RMA tumor growth [4, 6]?
**A.** delayed tumor growth in mice

**Q.** And the survival [4, 6]?
**A.** no significant improvement of survival

**Q.** And the “rejection of RMA T lymphoma” value ([4]; combined treatment with caffeine and high (60%) oxygen atmosphere)?
**A.** significantly improved spontaneous rejection of RMA T lymphoma; also recorded: dramatically improving tumor rejection and survival; also recorded: significantly improved T cell-mediated rejection of RMA T lymphoma

**Q.** What about the survival of mice ([4]; low dose RMA 2×10^5 cells s.c., combined caffeine and 60% oxygen, about 30% of control mice survived) of the same compound?
**A.** significantly improved survival of mice

**Q.** What about the “effectiveness of immunization (TNP-specific IgM)” value ([5]; caffeine in drinking water added to 60% oxygen versus 60% oxygen alone, FIG. 4B) of the same compound?
**A.** further improved effectiveness of immunization

**Q.** Which B16 tumor growth ([2]; 60% oxygen alone, with tumor vaccine, n=8) does the source give for oxygen here?
**A.** retarded

**Q.** And the survival of mice ([2]; 60% oxygen alone, with tumor vaccine, p=0.033 vs control)?
**A.** prolonged survival of mice

**Q.** And the tumor rejection ([4]; high dose RMA 3×10^5 cells s.c., 60% oxygen alone, n=8, most of the mice)?
**A.** did not reject the tumor; also recorded: couldn't reject the tumor

**Q.** And the “TNP-specific IgM production” value ([5]; 60% oxygen after vaccination versus normal oxygen, FIG. 4A)?
**A.** produced more IgM than control immunized mice
